Reference: patent US4521417A, “Geranylgeranylacetamide compounds having a piperazine ring, salts thereof, pharmaceutical compositions containing said compounds, and method of treating ulcers in mammals” (Nihon Iyakuhin Kogyo Co., Ltd., priority 1982, dated 1985)
Where a name gives a salt, the structure may show the parent alone.

Assays:
[1] = tested on: ulcer; assay: Pharmacological Test 1: pylorus-ligation ulcer in fasted rats, drug intraduodenal, ulcer area after 8 h; assay type: in vivo, STD Wistar-strain male rats; conditions: Rattus norvegicus, pylorus ligated, n=15 rats, read-out: Percent inhibition (ulcer area)
Procedure: (§1) Pharmacological tests were conducted on the above-mentioned known anti-ulcerogenic agents, the typical known anti-ulcerogenic compound of formula (A)-1 given hereinabove, and the compounds of formula (I) in accordance with this invention in order to examine their anti-ulcerogenic activities.
(§2) In these pharmacological tests, the numbers attached to the compounds of this invention correspond to the numbers of Production Examples given hereinbelow.
STD Wistar-strain male rats (body weight 170 to 200 g) were caused to fast for 72 hours, and then under ether anesthesia, were incised at the abdomen. The pylorus portion was ligated, and each of the test drugs was intraduodenally administered. The abdomen was closed and sewn. Eight hours later, the abdomen was cut open, and the stomach was taken out. The area of a generated ulcer was measured by a stereoscopic microscope, and the percent inhibition was calculated by comparison from a control to which the drug was not administered.

[2] = tested on: ulcers generated in the stomach body; assay: Pharmacological Test 2: water-immersion stress ulcer in rats, drug oral, total ulcer length; assay type: in vivo, STD Wistar-strain male rats; conditions: Rattus norvegicus, 1 hour before water immersion stress at 23±1° C., 18 hours, n=10 rats, read-out: Percent inhibition (total length of ulcers)
Procedure: as §1, §2
STD Wistar-strain male rats (body weight 170 to 200 g) were caused to fast for 30 hours, and put in a wire cage. They were immersed in a constant temperature water tank kept at 23±1° C. to their emsistermun. Eighteen hours later, the animals were taken out, and incised at the abdomen. The stomach was cut open and examined microscopically. One hour before applying stress to the animals by water immersion, each of the test drugs was orally administered. The total length of ulcers generated in the stomach body was compared with that in a control, and the rate of inhibiting ulcer formation was calculated.

[3] = tested on: ulcers; assay: Pharmacological Test 3: indomethacine-induced ulcer in rats, drug oral, total ulcer length; assay type: in vivo, STD Wistar male rats; conditions: Rattus norvegicus, 10 minutes before indomethacine 40 mg/kg s.c., 7 hours, n=10 rats, read-out: Percent inhibition (total length of ulcers)
Procedure: Pharmacological tests were conducted on the above-mentioned known anti-ulcerogenic agents, the typical known anti-ulcerogenic compound of formula (A)-1 given hereinabove, and the compounds of formula (I) in accordance with this invention in order to examine their anti-ulcerogenic activities. In these pharmacological tests, the numbers attached to the compounds of this invention correspond to the numbers of Production Examples given hereinbelow. STD Wistar male rats (body weight 170 to 200 g) were caused to fast for 24 hours, and indomethacine dissolved in a 5% aqueous solution of sodium hydrogen carbonate was subcutaneously administered in a dose of 40 mg/kg. Seven hours later, the animals were autopsied. Each of the test drugs was administered orally to the stomach 10 minutes before administration of indomethacine. The total length of ulcers formed was compared with that in a control, and the percent inhibition was calculated.

SMILES	inhibition in vivo at 300 mg/kg [1]	inhibition in vivo at 300 mg/kg [2]	inhibition in vivo at 200 mg/kg [3]	inhibition in vivo at 300 mg/kg [3]
CC(C)=CCC/C(C)=C/CC/C(C)=C/CC/C(C)=C/CCC(=O)N1C(C)CNCC1C (stereo not drawn) [Compound (15), 2,6-dimethyl-N-geranylgeranylacetyl piperazine]	80%	80%	77.2%	
CC(C)=CCC/C(C)=C/CC/C(C)=C/CC/C(C)=C/CCC(=O)N1CCN(Cc2ccccc2)CC1 [Compound (12), N-benzyl-N'-geranylgeranylacetyl piperazine]	64.9%	61.1%	62.1%	
CCCCN1CCN(C(=O)CC/C=C(\C)CC/C=C(\C)CC/C=C(\C)CCC=C(C)C)CC1 [Compound (6), N-butyl-N'-geranylgeranylacetyl piperazine]	66.5%	60.6%	55.3%	
CC(C)=CCCC(C)=CCCC(C)=CCCC(C)=CCCC(=O)N1CCNC(C)C1 (stereo not drawn) [Compound (13), methyl-N-geranylgeranylacetyl piperazine]	77.1%	82.8%	79.2%	
CCCN1CCN(C(=O)CC/C=C(\C)CC/C=C(\C)CC/C=C(\C)CCC=C(C)C)CC1 [Compound (4), N-n-propyl-N'-geranylgeranylacetyl piperazine]	64.7%	69%	56.5%	
CC(C)=CCC/C(C)=C/CC/C(C)=C/CC/C(C)=C/CCC(=O)N1CCN(CCCBr)CC1 [Compound (11), N-3-bromopropyl-N'-geranylgeranylacetyl piperazine]	66.8%	65.3%	65.6%	
NC[C@H]1CC[C@H](C(=O)Oc2ccc(CCC(=O)O)cc2)CC1 [Cetraxate hydrochloride, 4-(2-carboxyethyl)-phenyl-trans-4-aminomethylcyclohexanecarboxylate hydrochloride, reference compound]	27.8%	31.6%		25.3%
CCCCCN1CCN(C(=O)CC/C=C(\C)CC/C=C(\C)CC/C=C(\C)CCC=C(C)C)CC1 [Compound (7), N-n-amyl-N'-geranylgeranylacetyl piperazine]	67.3%	64.6%	65.3%	
CCC1CN(C(=O)CCC=C(C)CCC=C(C)CCC=C(C)CCC=C(C)C)CCN1 (stereo not drawn) [Compound (14)]	71.5%	70.2%	73.5%	
CC(C)=CCC/C(C)=C/CC/C(C)=C/CC/C(C)=C/CCC(=O)N1CCN(C)CC1 [Compound (2), N-methyl-N'-geranylgeranylacetyl piperazine]	74.5%	76%	75.3%	
CCN1CCN(C(=O)CC/C=C(\C)CC/C=C(\C)CC/C=C(\C)CCC=C(C)C)CC1 [Compound (3), N-ethyl-N'-geranylgeranylacetyl piperazine]	70.1%	68.7%	62.1%	
CC(C)=CCC/C(C)=C/CC/C(C)=C/CC/C(C)=C/CCC(=O)N1CCN(C(C)C)CC1 [Compound (5), N-isopropyl-N'-geranylgeranylacetyl piperazine]	66.5%	64%	60%	
CC(C)=CCCC(C)=CCCC(C)=CCCC(=O)OC/C=C(\C)CCC=C(C)C [Gefarnate, geranyl farnesylacetate, reference compound]	30%	23.6%		33.1%
CC(C)=CCCC(C)=CCCC(C)=CCCC(=O)N1CCN(C)CC1 [Comparative compound of formula (A)-1, reference compound]	53.3%	45.6%		51.2%
CC(C)=CCC/C(C)=C/CC/C(C)=C/CC/C(C)=C/CCC(=O)N1CCN(CCCCCl)CC1 [Compound (10), N-4-chlorobutyl-N'-geranylgeranylacetyl piperazine]	65.3%	67.3%	70.2%	
CC(C)=CCC/C(C)=C/CC/C(C)=C/CC/C(C)=C/CCC(=O)N1CCN(CC=C(C)C)CC1 [Compound (9), N-prenyl-N'-geranylgeranylacetyl piperazine]	64%	59%	57.2%	
C=CCN1CCN(C(=O)CC/C=C(\C)CC/C=C(\C)CC/C=C(\C)CCC=C(C)C)CC1 [Compound (8), N-allyl-N'-geranylgeranylacetyl piperazine]	70.5%	68.5%	72.5%	
CC1(C)[C@@H](OC(=O)CCC(=O)O)CC[C@]2(C)[C@H]3C(=O)C=C4[C@@H]5C[C@@](C)(C(=O)O)CC[C@]5(C)CC[C@@]4(C)[C@]3(C)CC[C@@H]12 [Carbenoxolone sodium, glycyrrhetinic acid hydrogen succinate, disodium salt, reference compound]	60.5%	8.6%		63.6%
CC(C)=CCC/C(C)=C/CC/C(C)=C/CC/C(C)=C/CCC(=O)N1CCNCC1 [Compound (1), N-geranylgeranylacetyl piperazine]	68.2%	73.8%	66%	
